Source: article PMC12113339, “Miltefosine analogues with comparable antileishmanial activity and significantly reduced macrophage cytotoxicity” (Memórias do Instituto Oswaldo Cruz, 2025)
Where two headings read alike, the source gives them in different places.

Key:
[1] = test system: GFP-labelled L. amazonensis amastigotes within J774.A1 macrophages; experiment: microbe, parasite or virus in culture; format: cell-based, Leishmania amazonensis; details: for Minimum concentration required to significantly reduce the percentage of macrophages infected with GFP-expressing amastigotes / Minimum concentration required to significantly decrease the mean fluorescence intensity: 24 h of treatment; for Minimum concentration required to significantly reduce the percentage of macrophages infected with GFP-expressing amastigotes: % GFP+ cells; for Minimum concentration required to significantly decrease the mean fluorescence intensity: MFI; for SI (CC50/EC50), amastigotes: CC50 J774A.1 / EC50 amastigotes; for EC50: Leishmania amazonensis, intracellular amastigotes in J774.A1, 24 h treatment, % infected cells, read-out: EC50 ± SD, amastigotes
Description: J774.A1 macrophage infection - GFP-labelled L. amazonensis was cultivated in Grace’s insect medium supplemented as described above. The GFP-labelled parasites were selected using 30 μg/mL hygromycin B.[21] J774.A1 macrophages were cultured in RPMI-1640 medium supplemented with 10% FCS, 2 mM L-glutamine, 11 mM sodium bicarbonate, 100 U/mL penicillin, and 100 µg/mL streptomycin. A sample with 4 x 10^6 cells/mL was infected with GFP-L. amazonensis (five parasites/cell) from six-day cultures for 24 h. Following infection, the cells were washed with 1x phosphate-buffered saline (PBS) to remove non-internalised parasites and cultured for an additional 24 h in the presence of MIL or its analogues at different concentrations (7.5-240 μM).
After cooling to ~4 °C, samples were collected by mechanical harvesting of adherent cells, washed twice with 1x PBS, and fixed with 1% paraformaldehyde for flow cytometry analysis using a BD Accuri™ C6 Flow Cytometry instrument (BD Bioscience, San Jose, CA, USA). Macrophages were selected by forward versus side scatter (FSC vs SSC). The data were analysed using FCS Express software (De Novo Software^TM, Glendale, CA, USA). The percentage of cells expressing GFP^+ (% infected cells) and mean fluorescence intensity (estimated amount of internalised parasites) were evaluated. The mean EC50 values were determined based on the best-fit sigmoidal curve plotted for infection percentage versus compound concentration, considering the maximum and minimum percentages of infected cells.

[2] = Macrophage cytotoxicity (MTT cell viability); format: cell-based, murine; details: mouse, J774.A1 macrophages, J774A.1 cells
Description: (§1) Cells - Leishmania (L.) amazonensis (MHOM/BR/75/Josefa) and green fluorescent protein (GFP)-labelled L. amazonensis (IFLA/BR/67/PH8) reference strains in their promastigote form were grown in 24-well microtiter plates containing 2 mL of Grace’s insect medium supplemented with 20% heat-inactivated FCS, 2 mM L-glutamine, 100 U/mL penicillin, and 100 µg/mL streptomycin, as previously described.[11] ^, [12] The promastigotes were collected for the experiments when the highest proportion of infective metacyclics was reached (6th day of culture). The J774.A1 murine macrophage cell line was obtained from the cell bank of Rio de Janeiro (NCE/UFRJ). Macrophages were cultured in RPMI-1640 medium supplemented with 10% FCS, 2 mM L-glutamine, 100 U/mL penicillin, and 100 μg/mL streptomycin at 36.5 °C in a humidified incubator containing 5% CO2.
(§2) In vitro assays of antileishmanial activity and macrophage cytotoxicity - Parasites at different cell concentrations (5 x 10^6, 1 x 10^7, 1 x 10^8, and 1 x 10^9 cells/mL), or J774.A1 macrophages at 1 x 10^6 cells/mL, were treated with increasing concentrations of MIL or its analogues, TC387, TC388, and TC437 (Fig. 1), which were initially diluted in an ethanol/DMSO mixture (1:1, v/v) at 25 or 250 mg/mL and then diluted in culture medium supplemented with 10% FCS. Promastigote or macrophage samples (100 µL) containing six different concentrations of the compounds (5-160 μM for promastigotes and 200-6,400 μM for macrophages) were prepared in 96-well microtiter plates and incubated for 24 h at 26 °C for promastigotes or 36.5 °C for macrophages. Cell viability was quantified by measuring the reduction of MTT to formazan by mitochondrial reductases. Formazan absorbance was read on the enzyme-linked immunosorbent assay (ELISA) reader at 550 nm, and the half maximal effective concentration (EC50) or half-maximal cytotoxic concentration (CC50) values were determined based on the best fit of the sigmoidal curve on the absorbance data versus the compound concentrations.

[3] = Haemolytic potential in whole blood; format: cell-based, human; details: human, whole blood reconstituted from plasma and blood cells, 24 h at 7 °C, read-out: Whole blood - % haemolysis
Description: (§3) Haemolytic potential in whole blood and PBS - Blood was collected from a university blood bank, adhering to an approved protocol by the Ethics Committee for Human and Animal Medical Research at Hospital das Clínicas, Universidade Federal de Goiás (CAAE: 81316417.1.0000.5078). To evaluate the haemolytic potential of MIL and its analogues (TC387, TC388, and TC437) in whole blood, plasma was separated by centrifugation at 1800 × g for 10 min at 4 °C. Next, 58 µL of plasma samples containing different concentrations of the compounds were prepared (in this case the compounds were diluted directly in blood plasma to final concentrations in the range of 2.5-12.5 mM), and 42 µL of the blood cells (100%) were added to each sample to reconstitute the whole blood. Samples were incubated for 24 h at 7 ± 1 °C, and several agitations were made in this period. After incubation, 1.4 mL PBS was added to each sample, and the tubes were centrifuged (3500 x g for 10 min). The percentage of haemolysis was determined based on the absorbance of haemoglobin in the supernatant at 540 nm relative to the sample without treatment (control). The compound concentration required for 50% haemolysis (HC50) was calculated by fitting the percentage of haemolysis versus compound concentration data to a sigmoidal curve.

[4] = test system: Leishmania amazonensis promastigotes; experiment: microbe, parasite or virus in culture; format: cell-based; details: for SI (CC50/EC50), promastigotes: CC50 J774A.1 / EC50 promastigotes; for EC50: Leishmania amazonensis
Description: as §1, §2

[5] = Haemolytic potential in PBS; format: cell-based; details: human, washed erythrocytes in PBS, haematocrit 2%, 2 h at 36.5 °C, read-out: Erythrocytes in PBS - % haemolysis; for hemolysis at 2 h, 6.6 mM: 6.6 mM (22 times 300 µM)
Description: To assess the haemolytic potential in PBS, blood was initially diluted threefold in PBS and centrifuged at 800 × g for 10 min at 4 °C. Plasma and white blood cells were removed, and the remaining cells were resuspended in PBS. Erythrocytes were washed twice in PBS, discarding the supernatant after centrifugation. Erythrocytes were then added to a micellar suspension of the compounds at various concentrations in PBS (0.3-10 mM), achieving a final haematocrit of 2%. Samples were incubated for 2 h at 36.5 ± 1 °C, and haemolysis percentages and HC50 values were determined as described above.

[6] = test system: plasma membranes of Leishmania amazonensis promastigotes; experiment: Best fit of eq. 3 to EC50 versus cell concentration (biophysical parameters); format: cell-based; details: for EC50: Leishmania amazonensis, read-out: cw50, concentration in the aqueous phase that inhibits parasite growth by half; for cm50, concentration in the membrane that inhibits parasite growth by half: from KM/W and cw50
Text: In cell suspension assays, the concentration of lipophilic compounds within the membrane can exceed that in the aqueous medium by over 10,000-fold (Log KM/W > 4). In a well-diluted cell suspension, the quantity of compound associated with the membrane can be negligible due to the relatively small membrane volume; consequently, the compound predominantly resides in the aqueous phase, rendering its EC50 value effectively equivalent to its concentration in that phase, denoted as cw50. However, as cell concentration increases, the enhanced membrane volume results in a significant elevation of the EC50 compared to cw50. The equation that describes the variation of MIL EC50 values in relation to cell concentration in the assay has been derived and is expressed as follows:[10] ^, [11]
EC50=[(Vmc. cc)^-1+ KM/W/ (Vmc . cc)^-1+1)] cw50 (3)
Where Vmc is the estimated cell membrane volume for an L. amazonensis promastigote, previously estimated as 8.17 x 10^-13 mL,[11] and cc is the number of cells per mL. The parameters KM/W and cw50 are covariant in eq. 3, and their values can be determined as best-fit parameters of eq. For very dilute samples, the plasma membrane content is small, and the EC50 and cw50 values are practically the same; assuming in eq. 3 that (Vmc . cc)^-1 >> KM/W, the EC50 = ~cw50. For high concentrations of cells, a remarkable amount of the compound goes to the membrane, and the EC50 value is much higher than the cw50 value. The cm50 value can also be determined from the […] relationship.

whole blood = experiment: Haemolytic potential in whole blood; format: cell-based, human; details: 7.5 mM, 24 h at 7 °C
Description: as §3

[7] = test system: L. amazonensis promastigotes; design: method as in Scariot et al. 13; details: ref Scariot et al. 13; cited from earlier work
[8] = test system: amastigotes internalised within J774.A1 macrophages; design: method as in Scariot et al. 13; details: ref Scariot et al. 13; cited from earlier work
[9] = 24 h, read-out: EC50 ± SD, promastigotes, 24 h at 26 °C, MTT
[10] = best-fit parameter of eq. 3, equivalent to EC50 for diluted samples

In the case of `COc1cc(CCCCCCCCOP(=O)([O-])OCC[N+](C)(C)C)cc(OC)c1` [TC437], the “Minimum concentration required to significantly reduce the percentage of macrophages infected with GFP-expressing amastigotes” value [1] is reported as 15 µM, the “Minimum concentration required to significantly decrease the mean fluorescence intensity” value [1] is reported as 7.5 µM and the “SI (CC50/EC50), amastigotes” value [1] is reported as 43. The EC50 [1] was 16 ± 3 µM, the CC50 at 24 h [2] was 692 ± 212 µM and the hemolysis at 24 h, 7.5 mM [3] was 40.6 ± 7.4%. For the same compound, the hemolysis at 24 h, 10 mM [3] was 92.5%, the “SI (CC50/EC50), promastigotes” value [4] was 29 and the EC50 [4, 9] was 24 ± 7 µM. It also gave a hemolysis at 2 h, 3.3 mM [5] of 29.8%, a hemolysis at 2 h, 6.6 mM [5] of less than 50% and a hemolysis at 2 h, 10 mM [5] of 65.4%. For the same compound, the EC50 [6] was 22.8 ± 3.7 µM and the “cm50, concentration in the membrane that inhibits parasite growth by half” value [6] was 0.56 ± 0.11 (A) M.
In the case of `COc1cccc(CCCCCCCCOP(=O)([O-])OCC[N+](C)(C)C)c1` [TC387], the “Minimum concentration required to significantly reduce the percentage of macrophages infected with GFP-expressing amastigotes” value [1] is reported as 7.5 µM, the “Minimum concentration required to significantly decrease the mean fluorescence intensity” value [1] is reported as 7.5 µM and the “SI (CC50/EC50), amastigotes” value [1] is reported as 80. For the same compound, the EC50 [1] was 12 ± 3 µM, the CC50 at 24 h [2] was 956 ± 277 µM and the “Whole blood - % haemolysis” value (whole blood) was 22.5 ± 3.7%. The hemolysis at 24 h, 7.5 mM [3] was 20.5%, the hemolysis at 24 h, 10 mM [3] was 75.3% and the “SI (CC50/EC50), promastigotes” value [4] was 34. The EC50 [4, 9] was 27 ± 9 µM, the hemolysis at 2 h, 3.3 mM [5] was 26.2% and the hemolysis at 2 h, 6.6 mM [5] was less than 50%. For the same compound, the hemolysis at 2 h, 10 mM [5] was 60.4%, the EC50 [6, 10] was 27.2 ± 2.9 µM and the “cm50, concentration in the membrane that inhibits parasite growth by half” value [6] was 0.53 ± 0.09 (A) M.
For `CCCCCCCCCCCCCCCCOP(=O)([O-])OCC[N+](C)(C)C` [MIL, hexadecylphosphocholine, reference compound], the “Minimum concentration required to significantly reduce the percentage of macrophages infected with GFP-expressing amastigotes” value [1] was 15 µM, the “Minimum concentration required to significantly decrease the mean fluorescence intensity” value [1] was 15 µM and the “SI (CC50/EC50), amastigotes” value [1] was 5. The EC50 [1] was 17 ± 3 µM, the IC50 [7] was 21 µM and the CC50 at 24 h [2] was 77 ± 23 µM. For the same compound, the “SI (CC50/EC50), promastigotes” value [4] was “around 6”, the “SI (CC50/EC50), promastigotes” value ([4]; listed as Miltefosine) was 6 and the EC50 [4, 9] was 13 ± 3 µM. For the same compound, the EC50 ([4]; read-out: EC50, promastigotes, cell concentration 1 x 10^7 parasites/mL) was roughly 13 µM, the EC50 ([4]; read-out: EC50, promastigotes, cell concentration 1 x 10^9 parasites/mL) was roughly 660 µM and the IC50 [8] was 2 µM. For the same compound, the EC50 [6, 10] was 9.4 ± 1.2 µM and the “cm50, concentration in the membrane that inhibits parasite growth by half” value [6] was 0.81 ± 0.07 (B) M.
For `COC(=O)c1c(CCCCCCCCOP(=O)([O-])OCC[N+](C)(C)C)cccc1OC` [TC388], the “Minimum concentration required to significantly reduce the percentage of macrophages infected with GFP-expressing amastigotes” value [1] was 7.5 µM, the “Minimum concentration required to significantly decrease the mean fluorescence intensity” value [1] was 7.5 µM and the EC50 [1] was 10 ± 2 µM. The CC50 at 24 h [2] was 1630 ± 404 µM, the hemolysis at 24 h, 10 mM [3] was 14.5% and the hemolysis at 24 h, 12.5 mM ([3]; 12.5 mM) was 24.2 ± 6.4%. The “SI (CC50/EC50), promastigotes” value [4] was 42, the EC50 [4, 9] was 39 ± 11 µM and the hemolysis at 2 h, 3.3 mM [5] was 8.5%. The hemolysis at 2 h, 10 mM [5] was 25.3%, the EC50 [6, 10] was 38.9 ± 3.8 µM and the “cm50, concentration in the membrane that inhibits parasite growth by half” value [6] was 0.50 ± 0.13 (A) M.
